Results on 15 molecules are retold here after patent US10538554B2, “Peptides and uses therefor as antiviral agents” (priority 2015, dated 2020).

The test system of test [1] is H9N2 A/Iran/16/2000. As to conditions: 48 h, 500 μM.
Test [2] concerns H3N8 A/Miami/2/63. As to conditions: A/Miami/2/63, 48 h, 500 μM.
Test [3] has as its system H1N1 A1/Malaysia/302/1954. The conditions noted are these: A1/Malaysia/302/1954, 48 h, 500 μM.

Bridge positions count the residues as written; N and C are the ends. Square brackets hold non-standard residues; d marks the D form. Peptide text beside a SMILES is read from it.

For `C[C@H](O)[C@H]1NC(=O)[C@H](N)CSSC[C@H](C(=O)O)NC(=O)[C@@H](CC(N)=O)NC(=O)[C@@H](CCCCN)NC(=O)[C@@H](Cc2ccccc2)NC(=O)[C@@H](CCCNC(=N)N)NC(=O)[C@@H](CO)NC(=O)[C@@H](CCCCN)NC1=O` [PSP 9, H-ctksrfknc-OH] (H-[dC][dT][dK][dS][dR][dF][dK][dN][dC]-OH; disulfide 1-9), in test [1], the “% inhibition H9N2” value is 31.8%. In test [2], the “% inhibition H3N8” value was found to be 62.9%. The “% inhibition H1N1” value in test [3] came to 17.6%.

Regarding `C[C@H](O)[C@H]1NC(=O)[C@H](N)CSSC[C@H](C(=O)O)NC(=O)[C@@H](CC(N)=O)NC(=O)[C@@H](CC(N)=O)NC(=O)[C@@H](Cc2ccccc2)NC(=O)[C@@H](CCCNC(=N)N)NC(=O)[C@@H](CO)NC(=O)[C@@H](CCCCN)NC1=O` [PSP 12, H-ctksrfnnc-OH] (H-[dC][dT][dK][dS][dR][dF][dN][dN][dC]-OH; disulfide 1-9), the “% inhibition H9N2” value in test [1] is listed as 27.3%. Besides, the “% inhibition H3N8” value in test [2] stood at 70.1%. Further, the “% inhibition H1N1” value in test [3] came to 32.7%.

As to `C[C@H](O)[C@H]1NC(=O)[C@H](N)CSSC[C@H](C(=O)O)NC(=O)[C@@H](CC(N)=O)NC(=O)[C@@H](CCC(N)=O)NC(=O)[C@@H](Cc2ccccc2)NC(=O)[C@@H](CCCNC(=N)N)NC(=O)[C@@H](CO)NC(=O)[C@@H](CCCCN)NC1=O` [PSP 14, H-ctksrfqnc-OH] (H-[dC][dT][dK][dS][dR][dF][dQ][dN][dC]-OH; disulfide 1-9), in test [1], the “% inhibition H9N2” value is 18.2%. Besides, the “% inhibition H3N8” value in test [2] is given as 62.9%. Moreover, the “% inhibition H1N1” value in test [3] is recorded as 23.1%.

Take `C[C@H](O)[C@H]1NC(=O)[C@H](N)CSSC[C@H](C(=O)O)NC(=O)[C@@H](CC(N)=O)NC(=O)[C@@H](CO)NC(=O)[C@@H](Cc2ccccc2)NC(=O)[C@@H](CCCNC(=N)N)NC(=O)[C@@H](CO)NC(=O)[C@@H](CCCCN)NC1=O` [PSP 16, H-ctksrfsnc-OH] (H-[dC][dT][dK][dS][dR][dF][dS][dN][dC]-OH; disulfide 1-9): the “% inhibition H9N2” value in test [1] stood at 45.5%. The “% inhibition H3N8” value in test [2] worked out at 71.1%. Also, in test [3], the “% inhibition H1N1” value worked out at 13.5%.

Consider `C[C@H](O)[C@H]1NC(=O)[C@H](N)CSSC[C@H](C(=O)O)NC(=O)[C@@H](CC(N)=O)NC(=O)[C@@H]([C@H](C)O)NC(=O)[C@@H](Cc2ccccc2)NC(=O)[C@@H](CCCNC(=N)N)NC(=O)[C@@H](CO)NC(=O)[C@@H](CCCCN)NC1=O` [PSP 17, H-ctksrftnc-OH] (H-[dC][dT][dK][dS][dR][dF][dT][dN][dC]-OH; disulfide 1-9), for which the “% inhibition H9N2” value in test [1] is listed as 9.1%. For the same molecule, the “% inhibition H3N8” value in test [2] came to 74.2%. The “% inhibition H1N1” value in test [3] is 30.8%.

Take `CC[C@@H](C)[C@H]1NC(=O)[C@@H](Cc2ccccc2)NC(=O)[C@@H](CCCNC(=N)N)NC(=O)[C@@H](CO)NC(=O)[C@@H](C)NC(=O)[C@@H]([C@H](C)O)NC(=O)[C@H](NC(=O)[C@@H](CCCCN)NC(=O)[C@@H](CCCCN)NC(=O)[C@@H](CCCNC(=N)N)NC(=O)[C@H](N)CCCNC(=N)N)CSSC[C@H](C(=O)O)NC(=O)[C@@H](CC(N)=O)NC1=O` [PSP II A1, H-rrkkctasrfinc-OH] (H-[dR][dR][dK][dK][dC][dT][dA][dS][dR][dF][dI][dN][dC]-OH; disulfide 5-13): in test [1], the “% inhibition H9N2” value is 40%. Also, in test [2], the “% inhibition H3N8” value is 25.9%.

On to `CC[C@@H](C)[C@H]1NC(=O)[C@@H](Cc2ccccc2)NC(=O)[C@@H](CCCNC(=N)N)NC(=O)[C@@H](CO)NC(=O)[C@@H](CC(=O)O)NC(=O)[C@@H]([C@H](C)O)NC(=O)[C@H](NC(=O)[C@@H](CCCCN)NC(=O)[C@@H](CCCCN)NC(=O)[C@@H](CCCNC(=N)N)NC(=O)[C@H](N)CCCNC(=N)N)CSSC[C@H](C(=O)O)NC(=O)[C@@H](CC(N)=O)NC1=O` [PSP II A3, H-rrkkctdsrfinc-OH] (H-[dR][dR][dK][dK][dC][dT][dD][dS][dR][dF][dI][dN][dC]-OH; disulfide 5-13), for which the “% inhibition H9N2” value in test [1] is 40%. Also, in test [2], the “% inhibition H3N8” value is given as 85.2%. The “% inhibition H1N1” value in test [3] is 44.8%.

As to `CC[C@@H](C)[C@H]1NC(=O)[C@@H](Cc2ccccc2)NC(=O)[C@@H](CCCNC(=N)N)NC(=O)[C@@H](CO)NC(=O)[C@@H](CCC(=O)O)NC(=O)[C@@H]([C@H](C)O)NC(=O)[C@H](NC(=O)[C@@H](CCCCN)NC(=O)[C@@H](CCCCN)NC(=O)[C@@H](CCCNC(=N)N)NC(=O)[C@H](N)CCCNC(=N)N)CSSC[C@H](C(=O)O)NC(=O)[C@@H](CC(N)=O)NC1=O` [PSP II A4, H-rrkkctesrfinc-OH] (H-[dR][dR][dK][dK][dC][dT][dE][dS][dR][dF][dI][dN][dC]-OH; disulfide 5-13), the “% inhibition H9N2” value in test [1] came out at 60%. Also, the “% inhibition H3N8” value in test [2] turned out to be 74.1%. Also, the “% inhibition H1N1” value in test [3] is given as 36.2%.

Take `CC[C@@H](C)[C@H]1NC(=O)[C@@H](Cc2ccccc2)NC(=O)[C@@H](CCCNC(=N)N)NC(=O)[C@@H](CO)NC(=O)[C@@H](Cc2ccccc2)NC(=O)[C@@H]([C@H](C)O)NC(=O)[C@H](NC(=O)[C@@H](CCCCN)NC(=O)[C@@H](CCCCN)NC(=O)[C@@H](CCCNC(=N)N)NC(=O)[C@H](N)CCCNC(=N)N)CSSC[C@H](C(=O)O)NC(=O)[C@@H](CC(N)=O)NC1=O` [PSP II A5, H-rrkkctfsrfinc-OH] (H-[dR][dR][dK][dK][dC][dT][dF][dS][dR][dF][dI][dN][dC]-OH; disulfide 5-13): in test [1], the “% inhibition H9N2” value was determined as 50%. The “% inhibition H3N8” value in test [2] is on record as 100%. For the same molecule, the “% inhibition H1N1” value in test [3] was 82.8%.

For the molecule `CC[C@@H](C)[C@H]1NC(=O)[C@@H](Cc2ccccc2)NC(=O)[C@@H](CCCNC(=N)N)NC(=O)[C@@H](CO)NC(=O)CNC(=O)[C@@H]([C@H](C)O)NC(=O)[C@H](NC(=O)[C@@H](CCCCN)NC(=O)[C@@H](CCCCN)NC(=O)[C@@H](CCCNC(=N)N)NC(=O)[C@H](N)CCCNC(=N)N)CSSC[C@H](C(=O)O)NC(=O)[C@@H](CC(N)=O)NC1=O` [PSP II A6, H-rrkkctGsrfinc-OH] (H-[dR][dR][dK][dK][dC][dT]G[dS][dR][dF][dI][dN][dC]-OH; disulfide 5-13), the “% inhibition H9N2” value in test [1] was found to be 20%. Further, the “% inhibition H3N8” value in test [2] was determined as 44.4%. Also, in test [3], the “% inhibition H1N1” value worked out at 1.7%.

Turning to `CC[C@@H](C)[C@H]1NC(=O)[C@@H](Cc2ccccc2)NC(=O)[C@@H](CCCNC(=N)N)NC(=O)[C@@H](CO)NC(=O)[C@@H](Cc2c[nH]cn2)NC(=O)[C@@H]([C@H](C)O)NC(=O)[C@H](NC(=O)[C@@H](CCCCN)NC(=O)[C@@H](CCCCN)NC(=O)[C@@H](CCCNC(=N)N)NC(=O)[C@H](N)CCCNC(=N)N)CSSC[C@H](C(=O)O)NC(=O)[C@@H](CC(N)=O)NC1=O` [PSP II A7, H-rrkkcthsrfinc-OH] (H-[dR][dR][dK][dK][dC][dT][dH][dS][dR][dF][dI][dN][dC]-OH; disulfide 5-13), in test [1], the “% inhibition H9N2” value is recorded as 50%. Moreover, the “% inhibition H3N8” value in test [2] is reported as 81.5%. In addition, the “% inhibition H1N1” value in test [3] is 71%.

For the molecule `CC[C@@H](C)[C@H]1NC(=O)[C@@H](Cc2ccccc2)NC(=O)[C@@H](CCCNC(=N)N)NC(=O)[C@@H](CO)NC(=O)[C@@H]([C@H](C)CC)NC(=O)[C@@H]([C@H](C)O)NC(=O)[C@H](NC(=O)[C@@H](CCCCN)NC(=O)[C@@H](CCCCN)NC(=O)[C@@H](CCCNC(=N)N)NC(=O)[C@H](N)CCCNC(=N)N)CSSC[C@H](C(=O)O)NC(=O)[C@@H](CC(N)=O)NC1=O` [PSP II A8, H-rrkkctisrfinc-OH] (H-[dR][dR][dK][dK][dC][dT][dI][dS][dR][dF][dI][dN][dC]-OH; disulfide 5-13), the “% inhibition H9N2” value in test [1] is 20%. For the same molecule, in test [2], the “% inhibition H3N8” value was 77.8%. The “% inhibition H1N1” value in test [3] worked out at 75%.

In the case of `CC[C@@H](C)[C@H]1NC(=O)[C@@H](Cc2ccccc2)NC(=O)[C@@H](CCCNC(=N)N)NC(=O)[C@@H](CO)NC(=O)[C@@H](CCCCN)NC(=O)[C@@H]([C@H](C)O)NC(=O)[C@H](NC(=O)[C@@H](CCCCN)NC(=O)[C@@H](CCCCN)NC(=O)[C@@H](CCCNC(=N)N)NC(=O)[C@H](N)CCCNC(=N)N)CSSC[C@H](C(=O)O)NC(=O)[C@@H](CC(N)=O)NC1=O` [PSP II A9, H-rrkkctksrfinc-OH] (H-[dR][dR][dK][dK][dC][dT][dK][dS][dR][dF][dI][dN][dC]-OH; disulfide 5-13), the “% inhibition H9N2” value in test [1] turned out to be 50%. In addition, the “% inhibition H3N8” value in test [2] is given as 77.8%. In test [3], the “% inhibition H1N1” value is given as 81%.

As for `CC[C@@H](C)[C@H]1NC(=O)[C@@H](Cc2ccccc2)NC(=O)[C@@H](CCCNC(=N)N)NC(=O)[C@@H](CO)NC(=O)[C@@H](CC(C)C)NC(=O)[C@@H]([C@H](C)O)NC(=O)[C@H](NC(=O)[C@@H](CCCCN)NC(=O)[C@@H](CCCCN)NC(=O)[C@@H](CCCNC(=N)N)NC(=O)[C@H](N)CCCNC(=N)N)CSSC[C@H](C(=O)O)NC(=O)[C@@H](CC(N)=O)NC1=O` [PSP II A10, H-rrkkctisrfinc-OH] (H-[dR][dR][dK][dK][dC][dT][dL][dS][dR][dF][dI][dN][dC]-OH; disulfide 5-13), the “% inhibition H9N2” value in test [1] was 40%. Also, in test [2], the “% inhibition H3N8” value came out at 88.9%. Further, the “% inhibition H1N1” value in test [3] was determined as 63.5%.

Turning to `CC[C@@H](C)[C@H]1NC(=O)[C@@H](Cc2ccccc2)NC(=O)[C@@H](CCCNC(=N)N)NC(=O)[C@@H](CO)NC(=O)[C@@H](CC(N)=O)NC(=O)[C@@H]([C@H](C)O)NC(=O)[C@H](NC(=O)[C@@H](CCCCN)NC(=O)[C@@H](CCCCN)NC(=O)[C@@H](CCCNC(=N)N)NC(=O)[C@H](N)CCCNC(=N)N)CSSC[C@H](C(=O)O)NC(=O)[C@@H](CC(N)=O)NC1=O` [PSP II A12, H-rrkkctnsrfinc-OH] (H-[dR][dR][dK][dK][dC][dT][dN][dS][dR][dF][dI][dN][dC]-OH; disulfide 5-13), the “% inhibition H3N8” value in test [2] was determined as 70.6%. In addition, in test [3], the “% inhibition H1N1” value turned out to be 53.8%.
